Laboratory results as given in patent US7834048B2, “Azabicycloheptyl compounds suitable for treating disorders that respond to modulation of the dopamine D3 receptor” (Abbott GmbH & Co. KG, priority 2004, dated 2010).

What was measured:
[1] = biological target: T1, human dopamine D3 receptors (Homo sapiens, UniProt P35462); assay: Dopamine D3 receptor binding, [125I]-iodosulpride displacement, HEK-293 membranes; settings: for Ki(D2)*/Ki(D3)*: selectivity, ratio of receptor binding constants D2L vs D3; for Ki: receptor binding constant, membranes of HEK-293 cells, 0.1 nM [125I]-iodosulpride, 25° C., 60 minutes
T1 construct: expressed in transfected cells
T1 sequence (P35462 whole entry): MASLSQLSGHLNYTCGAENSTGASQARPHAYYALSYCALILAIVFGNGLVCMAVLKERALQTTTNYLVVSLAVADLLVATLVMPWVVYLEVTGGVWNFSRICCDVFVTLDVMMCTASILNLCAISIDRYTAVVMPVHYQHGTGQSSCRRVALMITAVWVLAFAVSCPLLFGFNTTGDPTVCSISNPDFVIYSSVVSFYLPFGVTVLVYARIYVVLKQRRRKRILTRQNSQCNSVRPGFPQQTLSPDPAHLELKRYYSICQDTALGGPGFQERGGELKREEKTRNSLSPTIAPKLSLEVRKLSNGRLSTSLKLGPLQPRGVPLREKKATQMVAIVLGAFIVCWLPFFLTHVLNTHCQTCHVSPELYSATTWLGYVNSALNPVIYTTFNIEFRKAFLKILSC
Method: (§1) The substance to be tested was either dissolved in methanol/Chremophor® (BASF-AG) or in dimethyl sulfoxide and then diluted with water to the desired concentration.
(§2) Each assay mixture was run in triplicate.
The incubation buffer contained 50 mM tris, 120 mM NaCl, 5 mM KCl, 2 mM CaCl2, 2 mM MgCl2 and 0.1% bovine serum albumin, 10 μM […] and 0.1% ascorbic acid (prepared fresh daily). The buffer was adjusted to pH 7.4 with HCl.
(§3) After having been incubated at 25° C. for 60 minutes, the assay mixtures were filtered through a Whatman GF/B glass fiber filter under vacuum using a cell collecting device. The filters were transferred to scintillation viols using a filter transfer system. After 4 ml of Ultima Gold® (Packard) have been added, the samples were shaken for one hour and the radioactivity was then counted in a Beta-Counter (Packard, Tricarb 2000 or 2200CA). The cpm values were converted into dpm using a standard quench series and the program belonging to the instrument.
(§4) The inhibition curves were analyzed by means of iterative nonlinear regression analysis using the Statistical Analysis System (SAS) which is similar to the “LIGAND” program described by Munson and Rodbard.
(§5) The results of the receptor binding studies are expressed as receptor binding constants Ki(D2) and Ki(D3), respectively, as herein before described, and given in table 1.

[2] = biological target: T2, human dopamine D2L receptors (long isoform) (Homo sapiens, UniProt P14416); assay: Dopamine D2L receptor binding, [125I]iodospiperone displacement, HEK-293 membranes; settings: receptor binding constant; membranes of HEK-293 cells, 0.01 nM [125I]iodospiperone, 25° C., 60 minutes; read-out: Ki(D2)*
T2 construct: expressed in transfected cells
T2 sequence (P14416 whole entry, canonical isoform): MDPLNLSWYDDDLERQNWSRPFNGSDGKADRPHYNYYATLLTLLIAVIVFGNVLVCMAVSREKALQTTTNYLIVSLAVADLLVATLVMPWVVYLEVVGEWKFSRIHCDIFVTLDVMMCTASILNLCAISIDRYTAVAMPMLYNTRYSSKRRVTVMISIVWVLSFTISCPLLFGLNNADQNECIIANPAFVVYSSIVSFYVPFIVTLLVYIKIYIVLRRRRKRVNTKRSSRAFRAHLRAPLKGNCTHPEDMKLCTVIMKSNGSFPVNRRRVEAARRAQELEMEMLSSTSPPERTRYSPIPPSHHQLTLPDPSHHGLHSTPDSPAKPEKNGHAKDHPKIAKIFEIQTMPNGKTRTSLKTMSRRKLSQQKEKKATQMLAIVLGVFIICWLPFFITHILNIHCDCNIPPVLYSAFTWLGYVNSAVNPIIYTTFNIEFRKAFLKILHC
Method: as §1, §2
The incubation buffer contained 50 mM tris, 120 mM NaCl, 5 mM KCl, 2 mM CaCl2, 2 mM MgCl2 and 0.1% bovine serum albumin. The buffer was adjusted to pH 7.4 with HCl.
as §3, §4, §5

SMILES | Ki(D2)*/Ki(D3)* [1] | Ki [1] [nM] | Ki [2] [nM]
CCCN1C[C@H]2C[C@H](c3ccc(NS(=O)(=O)c4ccc(C(C)C)cc4)cc3)[C@H]2C1 (relative stereo) [Example 3, 4-Isopropyl-N-[4-(exo-3-propyl-3-aza-bicyclo[3.2.0]hept-6-yl)-phenyl]-benzenesulfonamide] | 45 | – | –
CCCN1C[C@H]2C[C@@H](c3ccc(NS(=O)(=O)c4ccc(C(C)C)cc4)cc3)[C@H]2C1 (relative stereo) [Example 16, endo-4-Isopropyl-N-[4-(3-propyl-3-aza-bicyclo[3.2.0]hept-6-yl)-phenyl]-benzenesulfonamide] | 39 | 5.3 | 208
CCCN1C[C@@H]2C[C@@H](c3ccc(NS(=O)(=O)c4ccc(OC(F)(F)F)cc4)cc3)[C@@H]2C1 [Example 4, N-[4-((1R,5S,6R)-3-Propyl-3-aza-bicyclo[3.2.0]hept-6-yl)-phenyl]-4-trifluoromethoxy-benzenesulfonamide] | 12 | 5.43 | 66.6
C=CCN1C[C@@H]2C[C@@H](c3ccc(NS(=O)(=O)c4ccc(OC(F)(F)F)cc4)cc3)[C@@H]2C1 [Example 6, N-[4-((1R,5S,6R)-3-Allyl-3-aza-bicyclo[3.2.0]hept-6-yl)-phenyl]-4-trifluoromethoxy-benzenesulfonamide] | 11 | 4.13 | 47
CCCN1C[C@@H]2C[C@@H](c3ccc(NS(=O)(=O)c4ccc(N5CCC[C@@H]5COC)cc4)cc3)[C@@H]2C1 [Example 9, 4-((R)-2-Methoxymethyl-pyrrolidin-1-yl)-N-[4-((1R,5S,6R)-3-propyl-3-azabicyclo[3.2.0]hept-6-yl)-phenyl]-benzenesulfonamide] | 13 | 4.08 | 54.8
CCCN1C[C@@H]2C[C@@H](c3ccc(NS(=O)(=O)c4ccc(-c5ccco5)cc4)cc3)[C@@H]2C1 [Example 12, N-[4-((1R,5S,6R)-3-Propyl-3-aza-bicyclo[3.2.0]hept-6-yl)-phenyl]-4-furan-2-yl-benzenesulfonamide] | 8 | 4.46 | 37.6
CCCN1C[C@H]2C[C@H](c3ccc(NS(=O)(=O)c4ccc(C(C)C)cc4)cc3)[C@H]2C1 [Example 14, 4-Isopropyl-N-[4-((1S,5R,6S)-3-propyl-3-aza-bicyclo[3.2.0]hept-6-yl)-phenyl]-benzenesulfonamide] | 8 | – | –

The remaining lines, values ahead:

Ki(D2)*/Ki(D3)* [1] | Ki [1] [nM] | Ki [2] [nM] | SMILES
28 | 0.47 | 12.9 | CCCN1C[C@@H]2C[C@@H](c3ccc(NS(=O)(=O)c4ccc(C(C)C)cc4)cc3)[C@@H]2C1 [Example 1, 4-Isopropyl-N-[4-((1R,5S,6R)-3-propyl-3-aza-bicyclo[3.2.0]hept-6-yl)-phenyl]-benzenesulfonamide]
23 | 3.15 | 72.1 | CCCN1C[C@@H]2C[C@@H](c3ccc(NS(=O)(=O)c4ccc(C(F)(F)F)cc4)cc3)[C@@H]2C1 [Example 5, N-[4-((1R,5S,6R)-3-Propyl-3-aza-bicyclo[3.2.0]hept-6-yl)-phenyl]-4-trifluoromethyl-benzenesulfonamide]
24 | 1.31 | 31.7 | CCCN1C[C@@H]2C[C@@H](c3ccc(NS(=O)(=O)c4ccc(Br)cc4)cc3)[C@@H]2C1 [Example 7, 4-Bromo-N-[4-((1R,5S,6R)-3-propyl-3-aza-bicyclo[3.2.0]hept-6-yl)-phenyl]-benzenesulfonamide]
17 | 1.81 | 30.2 | CCCN1C[C@@H]2C[C@@H](c3ccc(NS(=O)(=O)c4ccc(SC(F)(F)F)cc4)cc3)[C@@H]2C1 [Example 8, N-[4-((1R,5S,6R)-3-Propyl-3-aza-bicyclo[3.2.0]hept-6-yl)-phenyl]-4-trifluoromethylsulfanyl-benzenesulfonamide]
16 | 1.98 | 32 | CCCN1C[C@@H]2C[C@@H](c3ccc(NS(=O)(=O)c4ccc(N5CCCC5)cc4)cc3)[C@@H]2C1 [Example 10, N-[4-((1R,5S,6R)-3-Propyl-3-aza-bicyclo[3.2.0]hept-6-yl)-phenyl]-4-pyrrolidin-1-yl-benzenesulfonamide]
26 | 2.19 | 56.7 | CCCN1C[C@@H]2C[C@@H](c3ccc(NS(=O)(=O)c4ccc(N5CCC5)cc4)cc3)[C@@H]2C1 [Example 11, 4-Azetidin-1-yl-N-[4-((1R,5S,6R)-3-propyl-3-aza-bicyclo[3.2.0]hept-6-yl)-phenyl]-benzenesulfonamide]
10 | 1.32 | 13.1 | CCCN1C[C@@H]2C[C@@H](c3ccc(NS(=O)(=O)c4ccc(-c5cccs5)cc4)cc3)[C@@H]2C1 [Example 13, N-[4-((1R,5S,6R)-3-Propyl-3-aza-bicyclo[3.2.0]hept-6-yl)-phenyl]-4-thiophen-2-yl-benzenesulfonamide]
